Source: patent US20210330861A1, “ANTIMICROBIAL COATING COMPOSITIONS” (BIOCANT - CENTRO DE INOVAÇÃO EM BIOTECNOLOGIA, priority 2012, published 2021)
Ends that are not written are not given here.

Tests used:
HUVEC = experiment: Soluble CM peptide interaction with cells, MTT assay; format: cell-based, human; settings: 24 h contact with soluble peptide
Procedure: Two human cell types such as human endothelial umbilical vein cells (HUVEC) as a model for vascularized tissues and normal dermal human fibroblasts (NDHF) one of the most common cell type present in human connective tissue were used to evaluate the cytotoxicity induced by CM peptide immobilized surfaces. HUVECs (preferably, Lonza, Cat. Number CC-2517, Walkersville, Md., USA) were cultured using endothelial growth factor-2 media (EGM-2), bullet kit media (preferably, Lonza, Cat. Number CC-3156) for at least 24 h prior to further use. Passages below six were used for all experiments.
HUVEC and NDHF cells were cultured as previously mentioned and platted at a density of 4.2×10^3 cells/cm2 in 24-well plates. Cells were allowed to grow 24 h prior to any experiments performed. Different concentrations of CM peptide solutions (50, 30, 20, 10, 5, 2.5 and 1 μg/mL) were incubated with both cells for 24 hr to evaluate the cytotoxicity effect of CM peptides using MTT cell metabolic activity assay.
Initially cells were washed with warm phosphate buffer saline (PBS). […] Absorbance was measured at 540 nm with reference to 670 nm in a UV-visible spectrophotometer (SynergyMx from Biotek Instruments, Winooski, Vt., United States) (I don't understand by reference).

E. coli = experiment: Antimicrobial activity testing of peptide capped gold nanoparticles and peptide in bacterial suspension (colony count); format: cell-based
Procedure: (§1) S. aureus and E. coli were grown at 37° C. and maintained on LB plates (preferably, Luria-Bertani broth with 1.5% agar). Bacteria were also grown in LB media for overnight at 37° C. and cell counts were quantified by OD 600 measurements. Different amounts of peptide capped gold nanoparticles, peptide (5-10 μg/mL) and HEPES reduced gold nanoparticles (10 μg/mL) were added into bacterial suspensions ([…]) in presence of 10% human serum and incubated for 4 h at 37° C. 100 μL aliquots were taken out from the respective suspensions at 2 h intervals and diluted in PBS buffer to give […] and plated on LB agar plates followed by incubation at 37° C. Colonies were counted after 24 h of incubation. In another experiments, citric acid reduced gold nanoparticles were functionalized with 1 mg/mL mPEG-thiol (5 kDa). Gold nanoparticles were synthesized using citric acid as described previously (11). PEG and CMC peptide coated gold nanoparticles were incubated with 10% human serum for 2 hr at 4° C. followed by centrifugation at 14000 rpm to discard free human serum. Similarly, to study protease degradation, CMC coated gold nanoparticles and bare CMC peptides were treated with 1 mg/mL trypsin (phosphate buffer pH 8) for 2 h at 37° C. After 2 h of reaction, the nanoparticle solution was subjected to centrifugation to remove trypsin. Antimicrobial test was performed with human serum and trypsin treated peptide capped gold nanoparticles against E. coli.

S. aureus = experiment: as above; format: cell-based; settings: 10 μg/mL, after 4 hr of incubation, 10% human serum
Procedure: as §1

[1] = Zeta potential of gold nanoparticles; format: physicochemical; settings: after centrifugation and redispersion in HEPES, room temperature
Procedure: The synthesized gold nanoparticle solutions were centrifuged at 14000 rpm followed by washing with mill-Q water to remove unreacted peptides and HEPES. The centrifuged gold nanoparticles were frozen and fridge dried at 223 K using . . . Thermogravimetric analysis (TGA) of peptide capped gold nanoparticles and gold nanoparticles synthesized without peptides was performed using over a temperature range of 30-600° C. at a heating rate of 10° C./min in presence of N2 gas. The binding of peptide on gold nanoparticle surface was analyzed, preferably by FTIR spectroscopy in ATR mode using JASCO spectrophotometer at 4 cm-1 resolutions with 64 scans. Zeta (ζ) potential of the synthesized gold nanoparticles after centrifugation and redispersion in HEPES were measured, preferably, using Brukerheaven instrument at room temperature.

Substance | concentration at which negative influence on metabolic activity was also detected (MTT) (HUVEC) | killing of bacteria (E. coli; 10 μg/mL, after 4 hr of incubation, 10% human serum) | incubation time to kill bacteria (E. coli; absence of human serum (FIG. 9)) | antimicrobial activity after trypsin treatment (E. coli; treated with 1 mg/mL trypsin for 2 h at 37° C.) | killing of bacteria (S. aureus) | ζ potential (mV) [1]
Cecropin-mellitin [soluble CM peptide] | 1000 ng/mL |  |  |  |  | 
KWKLFKKIGAVLKVLC [CMC peptide, KWKLFKKIGAVLKVLC] |  | reduced activity | 60 min | did not show any antimicrobial activity | reduced activity | +23±1 mV
